The results in this text go back to patent US8580813B2, “Cyclic azaindole-3-carboxamides, their preparation and their use as pharmaceuticals” (Sanofi, priority 2008, dated 2013).

pIC50: −log10 of the molar value.

For this test, the target named is T1, Recombinant human renin (Homo sapiens, UniProt P00797).
T1 construct: purchased Cayman 10006217
T1 sequence (P00797 67-406): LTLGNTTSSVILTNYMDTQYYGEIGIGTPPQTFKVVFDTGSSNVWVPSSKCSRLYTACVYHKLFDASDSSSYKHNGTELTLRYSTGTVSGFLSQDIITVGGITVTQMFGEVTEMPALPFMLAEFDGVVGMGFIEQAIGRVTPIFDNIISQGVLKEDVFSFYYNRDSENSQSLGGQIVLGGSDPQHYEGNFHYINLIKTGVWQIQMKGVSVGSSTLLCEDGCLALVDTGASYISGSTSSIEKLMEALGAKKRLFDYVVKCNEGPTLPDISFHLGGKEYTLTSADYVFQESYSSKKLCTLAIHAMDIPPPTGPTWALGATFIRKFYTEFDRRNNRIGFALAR
Nature of the test: Inhibition of renin (fluorogenic peptide substrate). It counts as biochemical. The settings on record: recombinant human renin 5 nM, substrate 10 μM, 2 h at room temperature, Tris buffer pH 8; compounds tested as the obtained salt. The procedure:
M-2050; […] The increase in fluorescence, which is due to fluorescence resonance energy transfer, was recorded at an excitation wavelength of 330 nm and an emission wavelength of 485 nm in a microplate spectrofluorometer. Inhibitory concentrations IC50 were calculated from the percentage of inhibition of renin activity as a function of the concentration of the test compound. […] Representative IC50 values, which were determined with the compounds in the form of the obtained salt indicated in the examples above, are listed in table 8.
Regarding `Cc1ccccc1Oc1c(C(=O)N2CCNCC2)c2ncccc2n1-c1ccccc1` [Example 1, [1-Phenyl-2-(2-methyl-phenoxy)-1H-pyrrolo[3,2-b]pyridin-3-yl]-piperazin-1-yl-methanone], the pIC50 is 6.60.

For `Cc1ccccc1Cc1c(C(=O)N2CCNCC2)c2ncccc2n1-c1ccccc1` [Example 3, [2-(2-Methyl-benzyl)-1-phenyl-1H-pyrrolo[3,2-b]pyridin-3-yl]-piperazin-1-yl-methanone], the pIC50 was 6.92.

Consider `O=C(c1c(Cc2c(F)cccc2Cl)n(-c2ccccc2)c2ccncc12)N1CCNCC1` [Example 13, [2-(2-Chloro-6-fluoro-benzyl)-1-phenyl-1H-pyrrolo[3,2-c]pyridin-3-yl]-piperazin-1-yl-methanone], for which the pIC50 was 7.00. Then `COc1cc2c(C(=O)N3CCNCC3)c(Cc3cccc(F)c3C)n(-c3ccccc3)c2cn1` [Example 22, [2-(3-Fluoro-2-methyl-benzyl)-5-methoxy-1-phenyl-1H-pyrrolo[2,3-c]pyridin-3-yl]-piperazin-1-yl-methanone], with 6.07; and `Cc1c(F)cccc1Cc1c(C(=O)N2CCNCC2)c2cccnc2n1-c1ccccc1` [Example 27, [2-(3-Fluoro-2-methyl-benzyl)-1-phenyl-1H-pyrrolo[2,3-b]pyridin-3-yl]-piperazin-1-yl-methanone], with 7.07. With `Cc1c(F)cccc1Cc1c(C(=O)N2CCNCC2)c2cc(O)cnc2n1-c1ccccc1` [Example 31, [2-(3-Fluoro-2-methyl-benzyl)-5-hydroxy-1-phenyl-1H-pyrrolo[2,3-b]pyridin-3-yl]-piperazin-1-yl-methanone] the figure was 8.25; with `Cc1ccc(F)c(C)c1Oc1c(C(=O)N2CCNCC2)c2ccncc2n1-c1ccccc1` [Example 37, [2-(3-Fluoro-2,6-dimethyl-phenoxy)-1-phenyl-1H-pyrrolo[2,3-c]pyridin-3-yl]-piperazin-1-yl-methanone], 8.77; with `Cc1ccc(F)cc1Oc1c(C(=O)N2CCNCC2)c2ccnc(Cl)c2n1-c1ccccc1` [Example 38, [7-Chloro-2-(5-fluoro-2-methyl-phenoxy)-1-phenyl-1H-pyrrolo[2,3-c]pyridin-3-yl]-piperazin-1-yl-methanone], 6.49. Regarding `Cc1c(F)cccc1Cc1nccc2c(C(=O)N3CCNCC3)c(Cc3cccc(F)c3C)n(-c3ccccc3)c12` [Example 40, [2,7-Bis-(3-fluoro-2-methyl-benzyl)-1-phenyl-1H-pyrrolo[2,3-c]pyridin-3-yl]-piperazin-1-yl-methanone], the pIC50 is 8.29. Then `Cc1cccc(C)c1Oc1c(C(=O)N2CCNCC2)c2cnc(O)cc2n1C1CCCCC1` [Example 49, [1-Cyclohexyl-2-(2,6-dimethyl-phenoxy)-6-hydroxy-1H-pyrrolo[3,2-c]pyridin-3-yl]-piperazin-1-yl-methanone], with 7.10; and `CC(c1ccccc1)c1c(C(=O)N2CCNCC2)c2ncccc2n1-c1ccccc1` (stereo not shown) [Example 50, [1-Phenyl-2-(1-phenyl-ethyl)-1H-pyrrolo[3,2-b]pyridin-3-yl]-piperazin-1-yl-methanone], with 6.00. Regarding `CCOc1cnc2c(C(=O)N3CCNCC3)c(Oc3c(C)cccc3C)n(-c3ccccc3)c2c1` [Example 54, [2-(2,6-Dimethyl-phenoxy)-6-ethoxy-1-phenyl-1H-pyrrolo[3,2-b]pyridin-3-yl]-piperazin-1-yl-methanone], the pIC50 was 7.11. For `Cc1cccc(C)c1Oc1c(C(=O)N2CCNCC2)c2ncc(OCC(=O)O)cc2n1-c1ccccc1` [Example 57, [2-(2,6-Dimethyl-phenoxy)-1-phenyl-3-(piperazine-1-carbonyl)-1H-pyrrolo[3,2-b]pyridin-6-yloxy]-acetic acid], the pIC50 was 6.96. Then `COC(=O)CC1CN(C(=O)c2c(Oc3c(C)cccc3C)n(-c3ccccc3)c3cccnc23)CCN1` (stereo not shown) [Example 58, {4-[2-(2,6-Dimethyl-phenoxy)-1-phenyl-1H-pyrrolo[3,2-b]pyridine-3-carbonyl]-piperazin-2-yl}-acetic acid methyl ester], with 7.24; and `CNC(=O)CC1CN(C(=O)c2c(Oc3c(C)cccc3C)n(-c3ccccc3)c3cccnc23)CCN1` (stereo not shown) [Example 59, 2-{4-[2-(2,6-Dimethyl-phenoxy)-1-phenyl-1H-pyrrolo[3,2-b]pyridine-3-carbonyl]-piperazin-2-yl}-N-methyl-acetamide], with 7.15. Then `COC[C@H]1CN(C(=O)c2c(Oc3c(C)cccc3C)n(-c3ccccc3)c3cccnc23)CCN1` [Example 89], with 6.54; and `Cc1cccc(C)c1Oc1c(C(=O)N2CCN[C@@H](CC(C)C)C2)c2ncccc2n1-c1ccccc1` [Example 97], with 5.15; and `Cc1cccc(C)c1Oc1c(C(=O)N2CCNCC2Cc2ccccc2)c2ncccc2n1-c1ccccc1` (stereo not shown) [Example 106], with 6.38. With `Cc1c(F)cc(F)cc1Oc1c(C(=O)N2CCNCC2)c2ncccc2n1-c1ccccc1` [Example 111] the figure was 6.19. Regarding `COc1cc2c(cn1)c(C(=O)N1CCN[C@@H](C)C1)c(Cc1cccc(F)c1C)n2C1CCCCC1` [Example 113], the pIC50 was 6.49. With `Cc1c(F)cccc1Cc1c(C(=O)N2CCN[C@@H](CO)C2)c2cnc(O)cc2n1C1CCCCC1` [Example 116], the pIC50 was 5.96. With `Cc1c(F)cccc1Oc1c(C(=O)N2CCNCC2)c2cccnc2n1-c1ccccc1` [Example 129] the figure was 6.77; with `CCCc1ccnc2c1c(C(=O)N1CCNCC1)c(Oc1cc(F)ccc1C)n2-c1ccccc1` [Example 133], 5.73. With `COc1ccc2c(C(=O)N3CCNCC3)c(Oc3c(C)cccc3C)n(-c3ccccc3)c2n1` [Example 134], the pIC50 was 8.52. Turning to `Cc1ccc(F)cc1Sc1c(C(=O)N2CCN[C@@H](C)C2)c2ncccc2n1-c1ccccc1` [Example 139, [2-(5-Fluoro-2-methyl-phenylsulfanyl)-1-phenyl-1H-pyrrolo[3,2-b]pyridin-3-yl]-((S)-3-methyl-piperazin-1-yl)-methanone], the pIC50 was 6.72.
